Source: the supplement of paper PMC11061612

Tests used:
Experiment in all cases: combination Emax (second highest fraction inhibited in the dose matrix, 72 h); higher = more inhibition; extreme values may be limits of the assay
[1] = system: MOLT-16 (T-Lymphoblastic Leukemia)
Summary of the method: (§1)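 Bliss excess equals the observed combination effect minus the expected value EA + EB − EA·EB, where EA and EB are the effects of each agent alone. Combination Emax is the second-highest inhibition within the matrix. Inhibition was scaled from CellTiter-Glo 2.0 luminescence, with 0 set by vehicle wells and 1 by blank wells, after 72 hours of two-drug dosing of cells plated in 1536-well plates.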

NCI-H2818 (Mesothelioma) = system: NCI-H2818 (Mesothelioma)
Summary of the method: as §1

[2] = system: SR (Other Blood Carcinomas)
Summary of the method: as §1

ES8 (Ewing's Sarcoma) = system: ES8 (Ewing's Sarcoma)
Summary of the method: as §1

[3] = system: DiFi (Colorectal Carcinoma)
Summary of the method: as §1

[4] = system: BL-41 (Burkitt's Lymphoma)
Summary of the method: as §1

[5] = system: HDQ-P1 (Breast Carcinoma)
Summary of the method: as §1

LN-18 (Glioblastoma) = system: LN-18 (Glioblastoma)
Summary of the method: as §1

[6] = system: MFM-223 (Breast Carcinoma)
Summary of the method: as §1

[7] = system: COLO-678 (Colorectal Carcinoma)
Summary of the method: as §1

ES1 (Ewing's Sarcoma) = system: ES1 (Ewing's Sarcoma)
Summary of the method: as §1

[8] = system: NCI-H847 (Small Cell Lung Carcinoma)
Summary of the method: as §1

WM-115 (Melanoma) = system: WM-115 (Melanoma)
Summary of the method: as §1

[9] = system: NCI-H1792 (Lung Adenocarcinoma)
Summary of the method: as §1

[10] = system: DND-41 (T-Lymphoblastic Leukemia)
Summary of the method: as §1

[11] = system: KM12 (Colorectal Carcinoma)
Summary of the method: as §1

[12] = system: P12-ICHIKAWA (T-Lymphoblastic Leukemia)
Summary of the method: as §1

[13] = system: KCL-22 (Chronic Myelogenous Leukemia)
Summary of the method: as §1

[14] = system: GR-ST (B-Lymphoblastic Leukemia)
Summary of the method: as §1

TC-71 (Ewing's Sarcoma) = system: TC-71 (Ewing's Sarcoma)
Summary of the method: as §1

SMILES	combination Emax [1]	combination Emax (NCI-H2818 (Mesothelioma))	combination Emax [2]	combination Emax (ES8 (Ewing's Sarcoma))	combination Emax [3]	combination Emax [4]	combination Emax [5]	combination Emax (LN-18 (Glioblastoma))	combination Emax [6]	combination Emax [7]	combination Emax (ES1 (Ewing's Sarcoma))	combination Emax [8]	combination Emax (WM-115 (Melanoma))	combination Emax [9]	combination Emax [10]	combination Emax [11]	combination Emax [12]	combination Emax [13]	combination Emax [14]	combination Emax (TC-71 (Ewing's Sarcoma))
CC1(C)CCC(CN2CCN(c3ccc(C(=O)NS(=O)(=O)c4ccc(NCC5CCOCC5)c([N+](=O)[O-])c4)c(Oc4cnc5[nH]ccc5c4)c3)CC2)=C(c2ccc(Cl)cc2)C1 [Venetoclax] + C[C@@H](Nc1cc(F)cc(F)c1)c1cc(C(=O)N(C)C)cc2c(=O)cc(N3CCOCC3)oc12 [AZD8186] (first compound max 1 µM, 7x7, partner max 3 µM)	0.629	0.129	0.81	0.834	0.178	0.257	0.211	0.378	0.11	0.119	0.395	0.844	0.447	0.109	0.921	0.0675	0.0737	0.299	0.633	0.147
CC1(C)CCC(CN2CCN(c3ccc(C(=O)NS(=O)(=O)c4ccc(NCC5CCOCC5)c([N+](=O)[O-])c4)c(Oc4cnc5[nH]ccc5c4)c3)CC2)=C(c2ccc(Cl)cc2)C1 [Venetoclax] + Cc1cc2ncnn2cc1Nc1ncc2c(n1)n(C1CCOCC1)c(=O)n2C [AZD7648] (first compound max 1 µM, 7x7, partner max 10 µM)	0.855	0.352	0.82	0.427	0.246	0.17	0.189	0.378	0.161	0.16	0.46	0.735	0.238	0.397	0.885	0.21	0.298	0.159	0.679	0.262
CC1(C)CCC(CN2CCN(c3ccc(C(=O)NS(=O)(=O)c4ccc(NCC5CCOCC5)c([N+](=O)[O-])c4)c(Oc4cnc5[nH]ccc5c4)c3)CC2)=C(c2ccc(Cl)cc2)C1 [Venetoclax] + Cn1cnc2c(F)c(Nc3ccc(Br)cc3Cl)c(C(=O)NOCCO)cc21 [Selumetinib] (first compound max 1 µM, 7x7, partner max 3 µM)	0.691	0.133	0.791	0.195	0.351	0.196	0.182	0.17	0.24	0.485	0.338	0.168	0.42	0.251	0.891	0.555	0.23	0.318	0.481	0.291
